Reference: ChEMBL document CHEMBL1201862, “PubChem BioAssay data set” (2004)
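Compound exposure: 48 hours, 5 concentrations, 96-well plates. Abbreviation: GI50, concentration required for 50% inhibition of growth.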 Active and inactive are the calls of the source. Rule as the data show it: active = GI50 up to about 1.1 µM and inactive = higher.

What was measured:
Experiment in all cases: growth of human tumour cells (NCI), 48 h
SK-MEL-5 = test system: SK-MEL-5
KM-20L2 = test system: KM-20L2
786-0 = test system: 786-0
OVCAR-4 = test system: OVCAR-4
SK-MEL-2 = test system: SK-MEL-2
OVCAR-8 = test system: OVCAR-8
A549 = test system: A549
OVCAR-5 = test system: OVCAR-5
NCI-H460 = test system: NCI-H460
SW-620 = test system: SW-620
UO-31 = test system: UO-31
SF-539 = test system: SF-539
HOP-92 = test system: HOP-92
MDA-MB-435 = test system: MDA-MB-435
T47D = test system: T47D
BT-549 = test system: BT-549
PC-3 = test system: PC-3
MCF7 = test system: MCF7
MDA-MB-231 = test system: MDA-MB-231
Hs-578T = test system: Hs-578T

Measured: GI50

Cc1nc(Nc2ccccc2)sc1C(=O)NNc1ccc([N+](=O)[O-])cc1[N+](=O)[O-]
inactive: SK-MEL-5 25.5 µM | KM-20L2 24.7 µM | 786-0 27.9 µM | OVCAR-4 29.6 µM | SK-MEL-2 38.5 µM | OVCAR-8 39.2 µM | A549 93.5 µM | OVCAR-5 33.7 µM | NCI-H460 31.9 µM | SW-620 39.9 µM | UO-31 24 µM | SF-539 32.7 µM

O=C(O)/C(=C/c1ccccc1[N+](=O)[O-])c1cccs1
inactive: SK-MEL-5 > 100 µM | KM-20L2 > 100 µM | 786-0 > 100 µM | OVCAR-4 > 100 µM | SK-MEL-2 > 100 µM | OVCAR-8 > 100 µM | A549 > 100 µM | OVCAR-5 > 100 µM | NCI-H460 > 100 µM | SW-620 > 100 µM | UO-31 > 100 µM | SF-539 > 100 µM

Nc1nc(CCC(=O)Nc2cccc(C(F)(F)F)c2)cc(-c2cccc3ccccc23)n1
inactive: SK-MEL-5 > 100 µM | KM-20L2 > 100 µM | 786-0 > 100 µM | OVCAR-4 > 100 µM | SK-MEL-2 > 100 µM | OVCAR-8 > 100 µM | A549 > 100 µM | OVCAR-5 > 100 µM | NCI-H460 > 100 µM | SW-620 > 100 µM | UO-31 > 100 µM | SF-539 > 100 µM

COc1c(C)c2c(c(C)c1Cl)Oc1c(C=O)c(O)c(Cl)c(C)c1C(=O)O2
inactive: SK-MEL-5 95.7 µM | KM-20L2 30.5 µM | 786-0 31 µM | OVCAR-8 36.7 µM | A549 33.7 µM | OVCAR-5 28.1 µM | NCI-H460 32.3 µM | SW-620 43.8 µM | SF-539 18.5 µM

CCSc1nnc2c(-c3ccccc3)n[nH]c2n1
inactive: SK-MEL-5 > 100 µM | 786-0 86.7 µM | OVCAR-4 > 100 µM | SK-MEL-2 > 100 µM | OVCAR-8 66.8 µM | HOP-92 37.4 µM | A549 > 100 µM | OVCAR-5 > 100 µM | NCI-H460 > 100 µM | MDA-MB-435 > 100 µM | SW-620 > 100 µM | T47D > 100 µM | UO-31 > 100 µM | BT-549 > 100 µM | SF-539 90.8 µM | PC-3 > 100 µM | MCF7 > 100 µM | MDA-MB-231 > 100 µM | Hs-578T 30.4 µM

O=c1c2cc(I)ccc2nc(Sc2ncccc2[N+](=O)[O-])n1Cc1ccccc1
inactive: SK-MEL-5 18.3 µM | 786-0 23.2 µM | OVCAR-4 33.3 µM | SK-MEL-2 7.38 µM | OVCAR-8 31 µM | HOP-92 5.33 µM | A549 28 µM | OVCAR-5 > 100 µM | NCI-H460 29.4 µM | MDA-MB-435 23.7 µM | SW-620 33.1 µM | T47D 26.3 µM | UO-31 14.3 µM | BT-549 11.6 µM | SF-539 32.2 µM | PC-3 26.5 µM | MCF7 18.3 µM | MDA-MB-231 21.1 µM | Hs-578T 16.7 µM

COC(=O)c1ccc(CCC2=CC(=O)C(Br)=CC2=O)cc1
inactive: SK-MEL-5 12.1 µM | 786-0 19.8 µM | OVCAR-4 17.2 µM | SK-MEL-2 17.1 µM | OVCAR-8 16.3 µM | HOP-92 5.14 µM | A549 19.4 µM | OVCAR-5 18.8 µM | NCI-H460 18.2 µM | MDA-MB-435 16.1 µM | SW-620 13.6 µM | T47D 21.5 µM | UO-31 15.8 µM | BT-549 11.6 µM | SF-539 17.8 µM | PC-3 16.9 µM | MCF7 16.5 µM | MDA-MB-231 18.6 µM | Hs-578T 20.4 µM

OC1[C@@H]2[C@@H](O)CCCN2C[C@@H](O)[C@H]1O (some centres not stated)
inactive: SK-MEL-5 > 100 µM | 786-0 > 100 µM | OVCAR-4 > 100 µM | SK-MEL-2 > 100 µM | OVCAR-8 > 100 µM | HOP-92 > 100 µM | A549 > 100 µM | OVCAR-5 > 100 µM | NCI-H460 > 100 µM | MDA-MB-435 > 100 µM | SW-620 > 100 µM | T47D > 100 µM | UO-31 > 100 µM | BT-549 > 100 µM | SF-539 > 100 µM | PC-3 > 100 µM | MCF7 > 100 µM | MDA-MB-231 > 100 µM | Hs-578T > 100 µM

CC(=O)NC1CCC(NC(=O)OC(C)(C)C)C(NC(=O)OC(C)(C)C)C1 (configuration not stated)
inactive: SK-MEL-5 > 100 µM | 786-0 > 100 µM | OVCAR-4 > 100 µM | SK-MEL-2 > 100 µM | OVCAR-8 > 100 µM | HOP-92 > 100 µM | A549 > 100 µM | OVCAR-5 > 100 µM | NCI-H460 > 100 µM | MDA-MB-435 > 100 µM | SW-620 > 100 µM | T47D > 100 µM | UO-31 > 100 µM | BT-549 > 100 µM | SF-539 > 100 µM | PC-3 > 100 µM | MCF7 > 100 µM | MDA-MB-231 > 100 µM | Hs-578T > 100 µM

Oc1ccc(/C=C/c2ccc3cccc(O)c3n2)cc1O
inactive: SK-MEL-5 3.02 µM | 786-0 3.24 µM | OVCAR-4 7.5 µM | SK-MEL-2 11.9 µM | OVCAR-8 5.86 µM | HOP-92 15.9 µM | A549 4.23 µM | OVCAR-5 16.1 µM | NCI-H460 3.11 µM | MDA-MB-435 5.9 µM | SW-620 4.24 µM | T47D 1.75 µM | UO-31 2.74 µM | BT-549 1.61 µM | SF-539 3.13 µM | PC-3 15.6 µM | MCF7 2.42 µM | MDA-MB-231 23 µM | Hs-578T 36.1 µM

Cn1c(N)c(/N=N/c2ccc(S(N)(=O)=O)cc2)c(=O)n(C)c1=O
inactive: SK-MEL-5 > 100 µM | 786-0 53.1 µM | OVCAR-4 > 100 µM | SK-MEL-2 > 100 µM | OVCAR-8 > 100 µM | HOP-92 > 100 µM | A549 > 100 µM | OVCAR-5 > 100 µM | NCI-H460 > 100 µM | MDA-MB-435 > 100 µM | SW-620 > 100 µM | T47D > 100 µM | UO-31 > 100 µM | BT-549 > 100 µM | SF-539 > 100 µM | PC-3 > 100 µM | MCF7 > 100 µM | MDA-MB-231 > 100 µM | Hs-578T 22.3 µM

O=C(c1ccc(Cl)c(Cl)c1)N(C(=O)N1CCN(c2ccccc2)CC1)S(=O)(=O)c1ccccc1
inactive: SK-MEL-5 28.2 µM | 786-0 35.6 µM | OVCAR-4 24.2 µM | SK-MEL-2 23.2 µM | OVCAR-8 26.9 µM | HOP-92 20.9 µM | A549 > 100 µM | OVCAR-5 26.9 µM | NCI-H460 68.7 µM | MDA-MB-435 46.7 µM | SW-620 36.1 µM | T47D > 100 µM | UO-31 25.1 µM | BT-549 40.6 µM | SF-539 41.2 µM | PC-3 32 µM | MCF7 36.1 µM | MDA-MB-231 35.6 µM | Hs-578T 57 µM
